Measurements: patent US5885993A, “Remedy for pancreatitis” (Nippon Shinyaku Company, Limited, priority 1995, dated 1999)

Experiments:
[1] = Effect on body weight gain; assay type: in vivo, SD rats (male, 6-week-old); settings: 1000 mg/kg orally daily for 2 consecutive weeks
Protocol: Compound 1 was administered orally to 6-week-old male SD rats (in groups of 5) daily to investigate its effect on body weight gain.

male mice (BALB/c) = test: Acute toxicity; assay type: in vivo; settings: monitored for 1 week
Protocol: Six-week-old male mice (BALB/c) fasted in advance was orally dosed with 1 g/kg or 500 mg/kg of the test compound and the time course of mortality was monitored for 1 week. The test compound was suspended in 0.5% aqueous methylcellulose solution and administered in the dose of 500 or 1,000 mg/20 ml/kg. […] The toxicity of the compound of the invention is, thus, extremely low.

Cn+St pancreatitis = test: Antipancreatitis activity: severity of pancreatitis and wet weight of pancreas in Cn+St pancreatitis (cerulein plus water immersion stress); assay type: in vivo, SD rats (female, 12-week-old); settings: for Wet weight of pancreas / Severity of pancreatitis: oral gavage 18 and 2 hours before first Cn dosing, mean ± S.E.; for Severity of pancreatitis: score
Source text: The antipancreatitis action of the compound of the invention was confirmed in a test using rats as described hereinafter. The test protocol used is the most popular of all of the test protocols available for the evaluation of therapeutic drugs for pancreatitis in animals. A high correlation has been reported to hold between the antipancreatitis effect found by this test and the clinical effect in man [Yamaguchi et al.: Association of stresses in the onset of pancreatitis, Shoukakika, 18(2), 186-196, 1994). Female 12-week-old SD rats were used in groups of 10 individuals. After 40 μg/kg of cerulein (Cn) was administered intraperitoneally, the animals were placed in stress cages and immersed down to the xiphoid in a constant-temperature bath at 23° C. One hour later, 40 μg/kg of Cn was administered i.p. again and the stress loading was continued. After 5 hours of stress loading, the animals were sacrificed and laparotomized and the severity of pancreatitis was scored in accordance with the evaluation criteria proposed by Yamaguchi et al. (Gastroenterology 98: 1682-1688, 1990). In addition, the pancreas was excised and its wet weight was determined. As the test compounds, compounds 1, 2, 3, and 4 were administered by oral gavage 18 and 2 hours before the first Cn dosing. As a control compound, irsogladine maleate was used. Statistical significance was tested by Wilcoxon rank sum test for the severity and by Dunnett test for the wet weight.

[2] = tested on: cerulein-induced acute pancreatitis; settings: Proceedings of the 36th Congress of The Japanese Society of Gastroenterology, p.266; cited from earlier work

| SMILES | effect on body weight gain [1] | mortality (male mice (BALB/c); 1 g/kg oral) | Wet weight of pancreas (Cn+St pancreatitis; 10 mg/kg) [g/kg] | Severity of pancreatitis (Cn+St pancreatitis; 10 mg/kg) | Wet weight of pancreas (Cn+St pancreatitis; 30 mg/kg) [g/kg] | Severity of pancreatitis (Cn+St pancreatitis; 30 mg/kg) | Wet weight of pancreas (Cn+St pancreatitis; 100 mg/kg) [g/kg] | Severity of pancreatitis (Cn+St pancreatitis; 100 mg/kg) | mortality (male mice (BALB/c); 500 mg/kg oral) | Wet weight of pancreas (Cn+St pancreatitis; 1 mg/kg) [g/kg] | Severity of pancreatitis (Cn+St pancreatitis; 1 mg/kg) | Wet weight of pancreas (Cn+St pancreatitis; 3 mg/kg) [g/kg] | Severity of pancreatitis (Cn+St pancreatitis; 3 mg/kg) | efficacy in Cn-induced acute pancreatitis (in words) [2] | minimal effective dose (Cn+St pancreatitis; Rattus norvegicus, only at this dose (10, 30, 100 mg/kg tested), oral, read-out: dose showing a significant reducing effect on the severity of pancreatitis) [mg/kg] | effect on wet weight (swelling) of pancreas relative to comparator, in words (Cn+St pancreatitis; compound of the invention versus control compound irsogladine maleate) | inhibitory activity in Cn+St pancreatitis (in words) (Cn+St pancreatitis; rat model, cerulein plus water immersion stress loading) |
| --- | --- | --- | --- | --- | --- | --- | --- | --- | --- | --- | --- | --- | --- | --- | --- | --- | --- |
| Nc1nc(-c2cc(Cl)ccc2Cl)nc(N(CCO)CCO)n1 [Compound 1, 2-Amino-4-[N,N-bis(2-hydroxyethyl)amino]-6-(2,5-dichlorophenyl)-1,3,5-triazine] | did not affect the body weight gain of rats | no death was encountered | 9.33 ± 0.66 | 1.4 ± 0.22 | 7.13 ± 0.57 | 0.6 ± 0.22 | 5.65 ± 0.40 | 0.3 ± 0.21 | – | – | – | – | – | – | – | – | – |
| Cl.Nc1nc(-c2cc(Cl)ccc2Cl)nc(N2CCC[C@H]2CO)n1 [Compound 2, (S)-2-amino-4-(2,5-dichlorophenyl)-6-(2-hydroxymethyl-1-pyrrolidinyl)-1,3,5-triazine hydrochloride] | – | – | 7.31 ± 0.64 | 0.4 ± 0.16 | 4.35 ± 0.32 | 0.1 ± 0.03 | – | – | no death was encountered | 6.86 ± 0.41 | 1.3 ± 0.30 | 6.83 ± 0.48 | 0.8 ± 0.29 | – | – | – | – |
| Nc1nc(-c2cc(Cl)ccc2Cl)nc(N2C[C@H](O)C[C@H]2CO)n1 [Compound 3, 2-Amino-4-(2,5-dichlorophenyl)-6-[(2S,4R)-2-hydroxymethyl-4-hydroxy-1-pyrrolidinyl]-1,3,5-triazine] | – | no death was encountered | 6.67 ± 0.37 | 0.7 ± 0.08 | 5.96 ± 0.70 | 0.6 ± 0.08 | – | – | – | – | – | 7.58 ± 0.36 | 1.4 ± 0.10 | – | – | – | – |
| Nc1nc(-c2cc(Cl)ccc2Cl)nc(N2CCOCC2)n1 [Compound 4, 2-Amino-4-(2,5-dichlorophenyl)-6-morpholino-1,3,5-triazine] | – | no death was encountered | 7.33 ± 0.23 | 0.9 ± 0.28 | 6.18 ± 0.53 | 0.5 ± 0.22 | 7.49 ± 0.47 | 0.5 ± 0.17 | – | – | – | – | – | – | – | – | – |
| Nc1nc(N)nc(-c2cc(Cl)ccc2Cl)n1.O=C(O)/C=C\C(=O)O [irsogladine maleate, 2,4-diamino-6-(2,5-dichlorophenyl)-1,3,5-triazine maleate, reference compound] | – | – | 10.09 ± 0.51 | 2.2 ± 0.33 | 8.52 ± 0.60 | 1.5 ± 0.27 | 7.14 ± 0.58 | 0.4 ± 0.22 | – | – | – | – | – | proved efficacious | 100 | almost equivalent to the compound of the invention in the effect on wet weight of pancreas | only moderate activity |
